Test results reported in a melting point compilation (Tetko et al.; mined from patent text by program, amines drawn as free bases though some values may be those of a salt).

SMILES	melting point [°C]
CC(C)(C(=O)Cl)C(=S)Cl	112 to 114
O=C(Nc1ccc(-n2nc(C(F)(F)F)cc2C(F)(F)F)cc1)c1cc(Br)c(Br)s1	142 to 144
CC(C)(C)[Si](C)(C)OC1CCCc2cnc3cc(O)ccc3c21 (centres undefined)	248 to 250
CCOC(=O)c1ccc(NC(=O)c2ccncc2)cc1	143 to 145
COc1ccccc1C(=O)C=CC(=O)O	146 to 148
COC(=O)c1c(Cl)c(Cl)c(Cl)c(Cl)c1C#N	82 to 83
Nc1ncc2ncnc(Nc3ccc(F)c(Cl)c3)c2n1	300 to 301
CCC(=O)Oc1cccc2c1C(=O)c1c(OC(=O)CC)cccc1C2C(=O)CC(C)C	124
O=C(N1CCCC1)C(CCN1CCC(O)(c2ccccc2)CC1)(c1ccccc1)c1ccccc1	188
CON=C(C(C)=O)C(=O)N(C)C	73.5 to 75
NC(=O)[C@@H]1COCN1C(=O)CCl	131 to 133
O=C(OC1c2nccnc2C(=O)N1c1ccc2ccc(Cl)nc2n1)N1CCCCC1 (centres undefined)	249
CN(C)C=CC(=O)c1ccc(Cl)c(S(=O)(=O)N=CN(C)C)c1	204 to 206
COC(=O)c1ccc(/C=C(\C)c2ccc3c(c2)C(C)(C)CCN3C(C)=O)cc1	141 to 142
COc1c(C)cc([N+](=O)[O-])cc1C(=S)N(C)C	138 to 139
CC(=O)NCCC1CCc2ccn3ncc(C)c3c21 (centres undefined)	121 to 122
NC(=O)NCCNc1ccc([N+](=O)[O-])cc1	187
COc1cc(C2(CNC(=O)Nc3c(C(C)C)cccc3C(C)C)CCC2)cc(OC)c1OC	145 to 147
Cc1cc(/C=C/C(=O)N(C)O)c(C)n1-c1ccc(C(=O)N(C)C)cc1	172 to 174
CCN(CC)c1nc(N)c2cc(OC)c(OC)cc2n1	167 to 169

SMILES	melting point [°C]
Cc1cn(Cc2cccc(Cl)c2)cc1C(=O)CC(=O)C(=O)O	148 to 149
CC(=O)OC(CN1C(=O)N(C(C)=O)C2(CC(C)(C)N(C(C)=O)C(C)(C)C2)C1=O)CN1C(=O)N(C(C)=O)C2(CC(C)(C)N(C(C)=O)C(C)(C)C2)C1=O	286 to 288
CN1C(C)(C)CC2(CC1(C)C)NC(=O)N(CC(O)CN1C(=O)NC3(CC(C)(C)N(C)C(C)(C)C3)C1=O)C2=O	255 to 256
CSC1=NCCN1CC(C)O (centres undefined)	114 to 116
Cc1[nH]ncc1C(=O)Nc1ccc(OCC(C)(C)C)c(C#N)c1	133 to 134
CSC1=Nc2ccccc2C2=NCC(CC3CNCCC34CCCCC4)N12 (centres undefined)	114 to 115
Cc1cc(C)c(N2CCCc3c2nn(C)c3N)c(Cl)c1	234 to 236
CCCN(CCC)C(=O)C(CCC(=O)OC)NC(=O)C(C(=O)OC)=C1SC=CS1 (centres undefined)	115 to 117
CC(C)(C)C(=O)NC1CCCNC(=O)C1 (centres undefined)	106 to 107
COc1cc2ccccc2cc1C(=O)O	130 to 132
CC(=O)N(CC(=O)O)c1ccc(C)cc1C	165 to 172
COc1ccc(S(N)(=O)=O)cc1C(=O)NC1CCN(C2CCCCC2)C1 (centres undefined)	184 to 187
C=CCSc1nc(=O)[nH]cc1F	150 to 152
Cc1cc(C)cc(S(=O)(=O)c2cccc(F)c2C#N)c1	167 to 168
O=C(O)c1cnoc1-c1ccc(Cl)cc1Cl	122 to 123
Cc1cc(N)nc(Br)c1	99
CC(C)(C)OC(=O)N1CCc2cc3nccnc3cc2CC1	107 to 109
N#Cc1cc(F)c(-n2nc3ccc(Cl)cn3c2=O)cc1F	> 230
O=C(CCCCCCCCC(=O)OC1CCN(O)CC1)OC1CCN(O)CC1	133 to 135
CCC(O)CNC(=O)c1ccc(C(F)(F)F)c(N)c1 (centres undefined)	132 to 134

The remaining lines, values ahead:

melting point [°C]	SMILES
136	COc1ccc2ccc(N3C(=O)c4ccccc4C3OCC(=O)NCCC(C)C)nc2n1 (centres undefined)
327	O=c1[nH]c(C=Cc2ccc([N+](=O)[O-])o2)nc2ccccc12
110	Nc1ccc(C2(OC(=O)Nc3ccccc3)NCCC(c3ccccc3)O2)cc1 (centres undefined)
114 to 115	COc1nc(C)cnc1NS(=O)(=O)c1ccccc1-c1ccc(CC(C)C)c([N+](=O)[O-])c1
> 250	O=c1[nH]c2ccc(C(F)(F)F)cc2c(-c2cc(Cl)ccc2O)c1CO
198 to 200	CC1=C(C(=O)OC(C)C)C(c2cccc(Cl)c2)NC(=O)N1C(=O)NC(C)c1ccccc1 (centres undefined)
140 to 145	O=c1[nH]c(-c2ccc(CCCCN3CCN(c4nsc5ccccc45)CC3)cc2)cs1
77 to 84	CCOC(=O)N1CCN(CCCN2C(=O)c3ccccc3C2=O)CC1
148 to 150	CCCCNC(=O)[C@@H]1C[C@]2(NC(=O)N(CCCCl)C2=O)c2cc(F)ccc2O1
262	CS(=O)(=O)c1cccc(NC(=O)c2cnn3c(C(F)F)cc(-c4ccc(Cl)c(Cl)c4)nc23)c1
224 to 225	O=C(O)c1cccc(-c2ccc(F)c3cc(Cc4ccc(F)c(F)c4)sc23)c1
115 to 116	CCCCCCc1ccc(C2CN=C(NC(=O)OC)N2C)cc1 (centres undefined)
186 to 187	FC(F)(F)CSc1nc(-c2ccccc2)c(-c2ccccc2)[nH]1
191 to 193	Cc1cccn2cc(C(C)C)c(S(=O)(=O)c3ccc(O)cc3)c12
205 to 206	O=C(Nc1ccc(C(F)(F)F)cc1)c1ccc(-c2nn(Cc3ccccc3)c3ccccc23)o1
93 to 94	COc1ccc(C(CCC(C)=O)C(=O)c2ccc(OCc3ccccc3)cc2)cc1 (centres undefined)
155 to 164	Nc1nc(NC2Cc3ccccc3N(C(=O)c3ccccc3)C2)c2cn[nH]c2n1 (centres undefined)
186 to 187	CCCc1c(OCc2nnn[nH]2)ccc(C(=O)c2ccccc2O)c1O
93.3 to 96.2	CC(C)(C)c1ccc(C=NOCc2ccc(CC(=O)O)cc2)cc1
187 to 188	NC(=O)c1ncn2c(=O)n(Cc3ccccc3)nnc12

melting point [°C]	SMILES
190	CCS(=O)(=O)N[C@H]1CC[C@H](CCN2CCN(c3nccc4c3OCC4)CC2)CC1
144 to 146	CCOc1ccc(Nc2ncccc2NS(=O)(=O)c2ccc(OC)cc2)cc1
186 to 190	O=[N+]([O-])c1c(-c2c(C(F)(F)F)[nH]c(-c3ccc(Cl)cc3)c2[N+](=O)[O-])csc1Br
93 to 95	COC(=O)Cn1c(Cc2ccccc2)ccc(NC(=O)CCCc2ccccc2)c1=O
159 to 160	CN1CCCC(Cn2nc(-c3c(-c4ccccc4)nn4ccccc34)ccc2=O)C1 (centres undefined)
97 to 99	Cc1cc(C)c2c(n1)CC(c1ccccc1)CC2=O (centres undefined)
207 to 208	O=c1[nH]c2ccsc2c(=O)n1CCN1CCC(=C(c2ccc(F)cc2)c2ccc(F)cc2)CC1
64 to 67	CSc1nc2c(NCc3ccccc3)nc(NCCCO)nc2n1C(C)C
140 to 142	COc1ccc(-n2c3ccccc3c3cc(C(C#N)=C(C#N)c4cc(F)cc(F)c4)ccc32)cc1
133 to 137	Nc1nc2ccccc2c2c1ncn2CCCCCCCCNC(=O)c1ccccc1
105 to 107	Cc1ccc(S(=O)(=O)n2c(I)cc3cccnc32)cc1
245 to 246	CN1Cc2c(Cc3ccc4c(c3)C(=O)NC4=O)ncn2-c2ccsc2C1=O
299 to 300	O=C1NC(=O)c2ccc(Br)cc2/C1=C/NCc1cccnc1
107 to 108	Cc1c(Br)c(O)c(Cc2ccc(C(C)C)cc2)c(C)c1N(Cc1ccccc1)C(=O)CC(C)(C)C
70 to 73	O=C(c1cccc(F)c1)N1CC2CC2(c2ccc(Cl)cc2)C1 (centres undefined)
129 to 130	Fc1ccc(-c2ncn(C3CC3)c2-c2ccncc2)cc1
223 to 224	CC1(C)CCc2c(N3CCOCC3)nc3sc4c(NCCc5c[nH]cn5)ncnc4c3c2C1
87.6 to 89	CC1=C(c2ccccc2F)C(=O)N(C(C)(C)C(O)c2ccc(F)c(C)c2)CO1 (centres undefined)
208	O=C(O)c1cnc2cc(OCc3ccccc3)c(OCc3ccccc3)cn2c1=O
144 to 146	CCCN1C(=O)C2(c3ccccc3)CC(c3ccc([N+](=O)[O-])cc3)(C2)C1=O

melting point [°C]	SMILES
66 to 68	O=C1N(CCOCc2ccccc2)CCN1c1ccc(C(F)(F)F)cc1
110 to 111	CCCCCOc1cc2c(cc1OCc1cccc(C(=O)OC)c1)C(=O)CC2
208 to 209	Clc1ccc(NC2CCN(Cc3ccccc3)CC2)nn1
186 to 188	C#CC1N(C(=O)Oc2ccccc2)c2ccc(OC)cc2C23OC12CCCC3=O (centres undefined)
102	Cc1ccc(-c2ccc(-c3ccccc3)s2)s1
127 to 130	COCCN1C(=O)C(C)(C)C(=O)N(C)c2cc(CN(CCn3cc(C)c4occc4c3=O)Cc3cccnc3C)ccc21
45 to 47	COC(=O)c1cccc2cc(-c3ccccc3)oc12
75 to 77	O=C(c1cc(C(F)(F)F)cc(C(F)(F)F)c1)N1CCN(C(=O)CN2CC3CC2CN3Cc2ccccc2)C(c2ccc(Cl)c(Cl)c2)C1 (racemic)
115 to 117	c1ccc(C(CCc2c[nH]cn2)c2ccccc2)cc1
153 to 154	OCC1OC(c2ccc(Cl)c(Cc3cc4ccccc4s3)c2)C(O)C(O)C1O (centres undefined)
172 to 180	COc1ccc([N+](=O)[O-])c(NC(C(=O)O)C(c2ccccc2)c2ccccc2)n1 (centres undefined)
49	CCOC(=O)C(C)Oc1ccc(Oc2nc3ccc(Cl)cc3s2)cc1 (centres undefined)
242 to 243	O=C(c1ccccc1)n1c2cc(O)c(O)cc2c2ccc(O)c(O)c21
108 to 109	COC(=O)c1cccc(-c2nc(-c3ccc(OC)cc3)cs2)c1
83 to 86	O=C1N(CC2CCCN2)c2ccccc2C12COc1cc3c(cc12)CCO3 (centres undefined)
120 to 122	CN1C[C@@H](C(=O)OCc2ccccc2)N(C(=O)OCc2ccccc2)C1=O
104 to 106	CCCCCCCCCCCCc1ccccc1C(Sc1nc(C)c(C(=O)O)n1C)C(=O)O (centres undefined)
60 to 62	Fc1ccc(Cn2cnc3ccccc32)cc1
196	CS(=O)(=O)c1ccc(-c2oc3ccccc3c(=O)c2-c2ccc(F)c(Cl)c2)cc1
